The target of one experiment is IMPDH human type II (Homo sapiens, UniProt P12268). Nature of the experiment: biochemical.
The test system of a further experiment is human PBMC T cells. Nature of the experiment: cells. The format is cell-based. Particulars: 72 h, read-out: T-cells (IC50).
In the next experiment the test system is human PBMC B cells. Nature of the experiment: cells. The format is cell-based. The note with it: read-out: B-cells (IC50).

Read-outs that look alike come from different tables or passages of the source.

As usually defined, the Ki is the dissociation constant of the complex between target and ligand, obtained from inhibition or displacement. Read a high Ki as lower affinity. With `CCC(CCC#N)OC(=O)NCc1cccc(NC(=O)Nc2ccc(-c3cnco3)c(OC)c2)c1` (stereo not shown) [Compound 45], the Ki at IMPDH human type II is less than 10 nM.
Regarding `CC[C@H](COC(=O)CN)OC(=O)NCc1cccc(NC(=O)Nc2ccc(-c3cnco3)c(OC)c2)c1` [Compound 95], the Ki at IMPDH human type II (IMPDH human type II, 200 μM IMP, 200 μM NAD, 37° C.) was less than 10 nM.
Usually IC50 stands for the midpoint of a concentration-inhibition curve. As for `CC[C@H](CCC#N)OC(=O)NCc1cccc(NC(=O)Nc2ccc(-c3cnco3)c(OC)c2)c1` [Compound 89], the IC50 in the experiment on human PBMC T cells is less than 100 nM; in the experiment on human PBMC B cells (Homo sapiens, 72 h) it was less than 100 nM.
Take `COc1cc(NC(=O)Nc2cccc(CNC(=O)OC[C@H](CC#N)NC(=O)OC(C)(C)C)c2)ccc1-c1cnco1` [Compound 10]: the IC50 with human PBMC T cells was in the range of 100 to 1000 nM.
For `COc1cc(NC(=O)Nc2cccc(CNC(=O)OC3CCC[C@H]3N3CCOCC3)c2)ccc1-c1cnco1` (stereo partly shown) [Compound 80], in the experiment on human PBMC B cells (Homo sapiens, 72 h), the IC50 is less than 100 nM.
As for `COc1cc(NC(=O)Nc2cccc(CNC(=O)O[C@H](CN3CCCC3)c3ccccc3)c2)ccc1-c1cnco1` [Compound 98], the IC50 in the experiment with human PBMC T cells was less than 100 nM; in the experiment with human PBMC B cells (Homo sapiens, 72 h) it was less than 100 nM.
Turning to `COc1cc(NC(=O)Nc2cccc([C@H](C)NC(=O)O[C@H]3CCOC3)c2)ccc1C#N` [Compound 185], the IC50 in the experiment on human PBMC B cells is less than 100 nM.
Consider `CCN(C)CCC(OC(=O)NCc1cccc(NC(=O)Nc2ccc(-c3cnco3)c(OC)c2)c1)c1ccccc1` (stereo not shown) [Compound 139], for which the IC50 in the experiment with human PBMC T cells is 100 to 1000 nM; in the experiment with human PBMC B cells (Homo sapiens, 72 h), 100 to 1000 nM.
Regarding `C=CC(COC(C)=O)OC(=O)NCc1cccc(NC(=O)Nc2ccc(-c3cnco3)c(OC)c2)c1` (stereo not shown) [Compound 133], at IMPDH human type II, the Ki lay in the range of 10 to 50 nM.
At IMPDH human type II, `CC[C@@H](CC#N)OC(=O)NCc1cccc(NC(=O)Nc2ccc(-c3cnco3)c(OC)c2)c1` [Compound 88] came in with a Ki of less than 10 nM.

Values taken from patent US8268873B2 (priority 1999, dated 2012).
